# According to publication PMC4601640, “Stability of the Human Hsp90-p50^Cdc37 Chaperone Complex against Nucleotides and Hsp90 Inhibitors, and the Influence of Phosphorylation by Casein Kinase 2” (Molecules, 2015):
# Entries after “also recorded” stand apart in the source; their conditions may differ. Read-outs that look alike come from different tables or passages of the source.
# What was measured:
# h(p)Hsp90β-FL = h(p)Hsp90β-FL (Homo sapiens, UniProt P08238); experiment: ITC direct binding to CK2-phosphorylated full-length Hsp90β; details: 30 °C, read-out: Observed Kd
# Protocol: (§1) Binding of p50^Cdc37 and small molecules to Hsp90 was analyzed using a MicroCal iTC200 titration calorimeter (GE Healthcare). Compounds or p50^Cdc37 were titrated into a solution of Hsp90 using the following concentrations: p50^Cdc37 (200 µM) into Hsp90 (20 µM), nucleotides (600 µM) into Hsp90 (30 µM), inhibitors (300 µM) into Hsp90 (30 µM). […] All experiments were conducted in 50 mM HEPES pH 7.5, 10 mM MgCl2 at 30 °C. For titration of inhibitors, the buffer contained 5% DMSO. […] Generation of heat due to dilution was determined in separate experiments by diluting protein into buffer and subtracting these as blank values for each injection. Corrected heat values were fitted using a nonlinear least squares curve-fitting algorithm (Microcal Origin 7.0) to obtain the stoichiometry (n), binding constants (Ka, Kd), and change in enthalpy for each enzyme-ligand interaction (ΔH).
# hHsp90β-FL [1] = details: read-out: Reported Kd, cited from earlier work
# Hsp90β-p50^Cdc37 complex = test system: Hsp90β-p50^Cdc37 complex; parameters: method as in PMID 19858214; details: ref [26]; cited from earlier work
# Hsp90-p50^Cdc37 = molecular target: T1, Hsp90-p50^Cdc37 (Homo sapiens, UniProt P08238); experiment: ELISA complex formation, immobilized GST-p50^Cdc37 and Hsp90β, unphosphorylated; assay type: binding; details: for IC50: ELISA, Hsp90-p50^Cdc37 (unphosphorylated); for inhibitory activity against the complex: unphosphorylated or phosphorylated complex, in vitro
# T1 construct: The gene encoding human full-length Hsp90β was subcloned from T47D cell line cDNA; made in house; host or cells: E. coli BL21 Star (DE3) (Hsp90β); E. coli BL21 (DE3) (GST-p50Cdc37)
# hΔHsp90β = molecular target: T2, hΔHsp90β (Homo sapiens, UniProt P08238, DEL220-271/E274G/I272G/K273G/K275G); experiment: ITC direct binding to Hsp90β deletion mutant lacking the charged linker; details: 50 mM HEPES pH 7.5, 10 mM MgCl2, 30 °C, read-out: Observed Kd
# T2 construct: human Hsp90β (1-724 Δ220-275); His6 (N); made in house; host or cells: E. coli BL21 Star (DE3)
# Source text: The gene encoding human full-length Hsp90β was subcloned from T47D cell line cDNA, and human full-length CK2α was subcloned from MCF7 cell line cDNA, both a kind gift from Dr. Jonathan Lancaster, Moffitt Cancer Center. […] The deleted sections in the two Hsp90 genes were each replaced by four glycine residues. Hsp90α and Hsp90β were subcloned into the pET28a vector (Novagen), and p50^Cdc37 was subcloned into a modified pET28a vector containing a maltose-binding protein (MBP) solubility tag and a PreScission protease cleavage site using restriction enzymes BamHI and NotI (Fermentas) and T4 DNA ligase (Invitrogen) following the manufacturers’ instructions. BamHI was substituted with NdeI for full-length Hsp90β. p50^Cdc37 was also subcloned into the pGEX6P-1 vector (GE Healthcare) using the same procedure as above to provide an N-terminal GST-tag for GST pull-down and ELISA experiments. The plasmids were transformed into E. coli BL21 Star (DE3) (Hsp90α and Hsp90β, Invitrogen), Tuner (DE3) (p50^Cdc37 modified pET28a, Novagen), or BL21 (DE3) (p50^Cdc37 pGEX6P-1, Stratagene) expression strains. Transformed cells were grown in LB broth at 37 °C until the OD600 reached 0.4, then the temperature was lowered to 16 °C, and cells were induced with 0.1 mM IPTG at OD600 = 0.5–0.7. Cultures were then grown for 20–24 h before harvesting by centrifugation (30 min at 30,000× g, 4 °C).
# as §1
# (p)Hsp90-p50^Cdc37 = (p)Hsp90-p50^Cdc37 (Homo sapiens, UniProt P08238); experiment: ELISA complex formation, CK2-phosphorylated Hsp90β; details: ELISA
# Protocol: (§2) Phosphorylation of full-length Hsp90β and p50^Cdc37 was performed using purified full-length CK2α. The reaction was carried out in a 2.5 mL volume containing 50 µM Hsp90β or p50^Cdc37, 0.5 µM CK2α, 0.5 mM ATP, 20 mM Tris (pH 7.5), 50 mM KCl, and 10 mM MgCl2, and was incubated for 1 h at 30 °C. Samples were removed for analysis of phosphorylation status, and the proteins were re-buffered into 50 mM HEPES (pH 7.5), 150 mM NaCl, and 1 mM DTT (ELISA), or into 50 mM HEPES (pH 7.5) for ITC, using PD-10 gravity columns (GE Healthcare). Dephosphorylation was performed using 2.5 units of FastAP (alkaline phosphatase from Thermo Scientific) in buffer containing 10 mM Tris (pH 8.0 at 37 °C), 5 mM MgCl2, 100 mM KCl, 0.02% Triton-X 100, and 0.5 mg/mL BSA for 1 h at 37 °C.
# (§3) Purified GST-p50^Cdc37 (4 µM) or control (purified GST alone, 4 µM) was added to glutathione-coated 96-well plates (Pierce) in 100 μL protein buffer (50 mM HEPES, pH 7.5, 150 mM NaCl, 10 mM MgCl2, 0.05% Tween-20, and 0.1% BSA) and incubated for 1 h at room temperature (triplicate wells per sample). […] The mixtures were then added to the wells (100 μL per well, in triplicates) and incubated for 1 h at room temperature before washing. The wells were incubated with anti-His6-tag mAb (1 mg/mL stock, Abcam), diluted 1:2000 in antibody buffer (50 mM HEPES pH 7.5, 150 mM NaCl, 10 mM MgCl2, 0.05% Tween-20, and 1% BSA) for 1 h, followed by secondary antibody (horse anti-mouse HRP-conjugated IgG, Cell Signaling Technology), diluted 1:5000 in antibody buffer, for 1.5 h at room temperature. After washing three times with 1× HBS-T and two times with 1× HBS, 200 μL HRP substrate (SigmaFast OPD) was added per well. The plates were incubated at room temperature, and the absorbance was read at 450 nm after 15 min and 30 min using a SpectraMax 340 PC plate reader (Molecular Devices). For dose-response measurements, absorption values were corrected for unspecific binding of Hsp90 to immobilized GST, and the raw data were fit to equation (1), where f(I) is the fraction of complex remaining, [I] is the concentration of the inhibitor, IC50 is the half maximal inhibitory concentration against Hsp90-p50^Cdc37 complex formation, n is the Hill slope coefficient, min is the signal remaining at high inhibitor concentrations and max is the signal of the uninhibited complex. Corrected absorption values (ΔOD) for the uninhibited Hsp90-p50^Cdc37 complex (unphosphorylated and phosphorylated) were in the range of 0.4–1.0. Data were expressed relative to the respective max value of Equation (1). (1) f(I)=min+(max−min)/1+([I]/IC50)^n
# (p)Hsp90-(p)p50^Cdc37 = (p)Hsp90-(p)p50^Cdc37 (Homo sapiens, UniProt P08238); experiment: ELISA complex formation, both proteins CK2-phosphorylated; details: for disruption of the phosphorylated complex: CK2-phosphorylated complex; for IC50: ELISA, (p)Hsp90-(p)p50^Cdc37 (phosphorylated complex)
# Protocol: as §2, §3
# ΔHsp90-p50^Cdc37 = molecular target: T3, ΔHsp90-p50^Cdc37 (Homo sapiens, UniProt P08238, DEL220-271/E274G/I272G/K273G/K275G); experiment: ELISA complex formation, ΔHsp90; assay type: binding
# T3 construct: human Hsp90β (1-724 Δ220-275); made in house; host or cells: E. coli BL21 Star (DE3) (ΔHsp90β); E. coli BL21 (DE3) (GST-p50Cdc37)
# hHsp90β-FL [2] = molecular target: T4, hHsp90β-FL (Homo sapiens, UniProt P08238); experiment: ITC direct binding to full-length Hsp90β; details: for Kd: unphosphorylated hHsp90β-FL, 30 °C, read-out: Observed Kd
# T4 construct: The gene encoding human full-length Hsp90β was subcloned from T47D cell line cDNA; His6 (N); made in house; host or cells: E. coli BL21 Star (DE3)
# Protocol: as §1
# [3] = test system: yeast Hsp90 complex formation with human p50^Cdc37 or yeast Cdc37 protein; parameters: method as in PMID 11916974; details: ref [39]; cited from earlier work
# yHsp82-FL = details: yHsp82-FL; ref [34]; read-out: Reported Kd; cited from earlier work
# [4] = molecular target: T5, ΔHsp90β interaction with GST-p50^Cdc37 (Homo sapiens, UniProt P08238, DEL220-271/E274G/I272G/K273G/K275G); experiment: GST pull-down of ΔHsp90β with GST-p50^Cdc37; assay type: binding; details: for effect on complex in GST pull-down: 1 mM nucleotide or 0.1 mM inhibitor, 15 min incubation, SDS-PAGE
# T5 construct: human Hsp90β (1-724 Δ220-275); made in house; host or cells: E. coli BL21 Star (DE3) (ΔHsp90β); E. coli BL21 (DE3) (GST-p50Cdc37)
# Protocol: GST pull-down experiments were carried out using 1 mL GST 4 FastFlow resin in 8 mL Flex columns (Kontes). All experiments were performed at room temperature by gravity flow. Loading and wash buffers contained 50 mM Tris pH 8, 50 mM KCl, 5 mM MgCl2, and 5% DMSO. The elution buffer contained an additional 10 mM reduced glutathione. […] The resin was washed with 20 CV wash buffer, and samples were eluted with 2 CV elution buffer. Eluted protein was analysed on 12% SDS-PAGE stained with Coomassie blue for visualization.
# Hsp90-(p)p50^Cdc37 = molecular target: T6, Hsp90-(p)p50^Cdc37 (Homo sapiens, UniProt P08238); experiment: ELISA complex formation, CK2-phosphorylated p50^Cdc37; assay type: binding
# T6 construct: The gene encoding human full-length Hsp90β was subcloned from T47D cell line cDNA; made in house; host or cells: E. coli BL21 Star (DE3) (Hsp90β); E. coli BL21 (DE3) (GST-p50Cdc37)
# [5] = molecular target: T7, interaction of the N-terminal domain of Hsp90β with p50^Cdc37 (Homo sapiens, UniProt P08238); experiment: ITC of N-terminal Hsp90β with p50^Cdc37 in the presence of ADP; assay type: binding; details: 5 mM ADP
# T7 construct: human N-terminal Hsp90β (1-219, denoted Hsp90β-N); His6 (N); made in house; host or cells: E. coli BL21 Star (DE3) (Hsp90β-N); E. coli Tuner (DE3) (p50Cdc37)
# Protocol: Binding of p50^Cdc37 and small molecules to Hsp90 was analyzed using a MicroCal iTC200 titration calorimeter (GE Healthcare). Compounds or p50^Cdc37 were titrated into a solution of Hsp90 using the following concentrations: p50^Cdc37 (200 µM) into Hsp90 (20 µM), nucleotides (600 µM) into Hsp90 (30 µM), inhibitors (300 µM) into Hsp90 (30 µM). Titrations of compounds into p50^Cdc37 were performed with similar compound/protein ratios. All experiments were conducted in 50 mM HEPES pH 7.5, 10 mM MgCl2 at 30 °C. For titration of inhibitors, the buffer contained 5% DMSO. Typically, an initial 0.5 µL injection was followed by 19 injections of 2.2 µL of syringe solution (compound or p50^Cdc37) into a 200 µL protein solution of Hsp90 constantly stirred at 1000 rpm, and data were recorded for 180 s between injections. Generation of heat due to dilution was determined in separate experiments by diluting protein into buffer and subtracting these as blank values for each injection. Corrected heat values were fitted using a nonlinear least squares curve-fitting algorithm (Microcal Origin 7.0) to obtain the stoichiometry (n), binding constants (Ka, Kd), and change in enthalpy for each enzyme-ligand interaction (ΔH).
# T5 sequence (P08238 with tags, fused parts or gaps DEL220-271/I272G/K273G/E274G/K275G): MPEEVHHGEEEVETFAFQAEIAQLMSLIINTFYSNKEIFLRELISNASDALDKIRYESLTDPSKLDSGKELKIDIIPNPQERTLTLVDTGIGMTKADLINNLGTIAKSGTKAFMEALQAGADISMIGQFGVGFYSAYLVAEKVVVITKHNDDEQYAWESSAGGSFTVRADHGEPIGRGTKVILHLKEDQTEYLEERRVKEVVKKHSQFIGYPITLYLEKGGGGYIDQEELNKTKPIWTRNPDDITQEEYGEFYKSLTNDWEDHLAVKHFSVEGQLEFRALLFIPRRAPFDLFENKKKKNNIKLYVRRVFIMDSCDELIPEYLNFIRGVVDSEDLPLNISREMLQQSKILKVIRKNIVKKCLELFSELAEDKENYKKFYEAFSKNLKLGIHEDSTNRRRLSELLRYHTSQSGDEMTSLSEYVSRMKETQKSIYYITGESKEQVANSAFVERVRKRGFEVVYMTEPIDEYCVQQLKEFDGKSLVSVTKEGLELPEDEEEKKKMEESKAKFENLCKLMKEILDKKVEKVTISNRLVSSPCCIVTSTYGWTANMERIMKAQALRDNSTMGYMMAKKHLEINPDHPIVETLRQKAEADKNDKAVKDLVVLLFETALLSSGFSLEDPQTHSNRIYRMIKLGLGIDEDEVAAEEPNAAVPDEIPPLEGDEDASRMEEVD
# T2 sequence (P08238 with tags, fused parts or gaps DEL220-271/I272G/K273G/E274G/K275G): as above
# T3 sequence (P08238 with tags, fused parts or gaps DEL220-271/I272G/K273G/E274G/K275G): as above
# Chain of h(p)Hsp90β-FL (P08238 whole entry): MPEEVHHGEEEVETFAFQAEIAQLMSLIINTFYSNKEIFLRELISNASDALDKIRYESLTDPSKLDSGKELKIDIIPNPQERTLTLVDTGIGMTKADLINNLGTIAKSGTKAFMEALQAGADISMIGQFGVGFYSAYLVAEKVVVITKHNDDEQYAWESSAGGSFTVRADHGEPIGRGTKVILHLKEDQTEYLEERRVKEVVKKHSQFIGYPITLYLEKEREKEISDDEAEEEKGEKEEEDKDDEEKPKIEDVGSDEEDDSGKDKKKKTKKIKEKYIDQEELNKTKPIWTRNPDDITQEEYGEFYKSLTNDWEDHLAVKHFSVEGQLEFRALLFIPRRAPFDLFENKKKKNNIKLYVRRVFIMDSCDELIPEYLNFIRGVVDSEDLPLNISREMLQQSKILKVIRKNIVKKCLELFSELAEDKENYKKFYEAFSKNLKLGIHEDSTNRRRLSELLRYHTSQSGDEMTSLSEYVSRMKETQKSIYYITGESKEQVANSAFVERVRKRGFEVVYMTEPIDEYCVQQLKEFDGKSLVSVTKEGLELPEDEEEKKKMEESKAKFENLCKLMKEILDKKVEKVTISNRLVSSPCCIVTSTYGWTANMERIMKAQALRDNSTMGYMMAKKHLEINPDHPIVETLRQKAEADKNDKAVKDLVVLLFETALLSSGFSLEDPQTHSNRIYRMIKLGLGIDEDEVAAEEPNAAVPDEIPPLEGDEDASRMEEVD
# Chain of (p)Hsp90-(p)p50^Cdc37 (P08238 whole entry): as above
# Chain of (p)Hsp90-p50^Cdc37 (P08238 whole entry): as above
# T7 sequence (P08238 1-219): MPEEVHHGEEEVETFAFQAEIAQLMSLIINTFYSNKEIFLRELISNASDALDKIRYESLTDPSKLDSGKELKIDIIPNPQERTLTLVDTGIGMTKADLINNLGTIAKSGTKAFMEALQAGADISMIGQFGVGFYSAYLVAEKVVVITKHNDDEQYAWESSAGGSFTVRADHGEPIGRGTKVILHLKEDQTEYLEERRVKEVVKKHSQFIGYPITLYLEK
Molecule,Kd (h(p)Hsp90β-FL) [µM],effect on complex formation between Hsp90β and p50^Cdc37 (Hsp90β-p50^Cdc37 complex),IC50 (Hsp90-p50^Cdc37) [µM],inhibitory activity against the complex (Hsp90-p50^Cdc37),Kd (hHsp90β-FL [1]; ref [31]) [µM],Kd (hΔHsp90β) [µM],IC50 ((p)Hsp90-p50^Cdc37; (p)Hsp90-p50^Cdc37) [µM],IC50 ((p)Hsp90-(p)p50^Cdc37) [µM],IC50 (ΔHsp90-p50^Cdc37) [µM],Kd (hHsp90β-FL [2]) [µM],effect on complex in GST pull-down [4],other results
(p)p50^Cdc37: human p50^Cdc37 phosphorylated by CK2 at residue Ser13,1.9 ± 0.13,–,–,–,–,–,–,–,–,–,–,–
CO[C@H]1/C=C\C=C(/C)C(=O)NC2=CC(=O)C(NCCN(C)C)=C(C[C@@H](C)C[C@H](OC)[C@H](O)[C@@H](C)/C=C(\C)[C@@H]1OC(N)=O)C2=O [17-DMAG],–,showed no effect,–,–,–,–,–,–,–,–,–,Kd (hHsp90β-FL [1]; ref [33]): 0.35 µM
Nc1ncnc2c1ncn2[C@@H]1O[C@H](COP(=O)(O)OP(=O)(O)NP(=O)(O)O)[C@@H](O)[C@H]1O [AMP-PNP],590,–,> 1000,did not show appreciable inhibitory activity,148,84,> 1000,> 1000,> 1000,85,–,disruption of the phosphorylated complex ((p)Hsp90-(p)p50^Cdc37): remained largely ineffective
COC1=C2C[C@@H](C)C[C@H](OC)[C@H](O)[C@@H](C)/C=C(\C)[C@H](OC(N)=O)[C@@H](OC)/C=C\C=C(/C)C(=O)NC(=CC1=O)C2=O [geldanamycin],–,–,–,–,–,–,–,–,–,–,–,influence on complex formation [3]: did not influence complex formation
CCNC(=O)c1noc(-c2cc(C(C)C)c(O)cc2O)c1-c1ccc(CN2CCOCC2)cc1 [NVP-AUY922],–,–,–,did not show appreciable inhibitory activity,–,–,–,–,–,–,–,Kd (hHsp90β-FL [1]; ref [32]): 0.0017 µM
C[C@@H]1C[C@H]2O[C@@H]2/C=C\C=C\C(=O)Cc2c(Cl)c(O)cc(O)c2C(=O)O1 [Radicicol],–,–,–,–,–,–,–,–,–,–,–,Kd (yHsp82-FL): 0.019 µM
"O=C(O)CCc1nn(Cc2ccc(Cl)cc2Cl)c2cc(C(F)(F)F)ccc12 [H2-GMZ, H2-gamendazole]",–,–,> 1000,did not show appreciable inhibitory activity,–,–,> 1000,> 1000,> 1000,–,ineffective,"inhibitory activity against the complex (Hsp90-p50^Cdc37; listed as H2-gamendazole): did not affect the interaction of Hsp90 with p50^Cdc37 in vitro; protection of the complex from ADP in GST pull-down competition ([4]; in the presence of ADP, 0.1 mM radicicol): had no effect; binding potential towards Hsp90β (hHsp90β-FL [2]; Figure 3): failed to display binding potential"
"C=CCNC1=C2C[C@@H](C)C[C@H](OC)[C@H](O)[C@@H](C)/C=C(\C)[C@H](OC(N)=O)[C@@H](OC)/C=C\C=C(/C)C(=O)NC(=CC1=O)C2=O [17-AAG, Tanespimycin]",–,showed no effect,–,–,–,–,–,–,–,–,–,–
Nc1ncnc2c1ncn2[C@@H]1O[C@H](COP(=O)(O)OP(=O)(O)O)[C@@H](O)[C@H]1O [ADP],13,did not exert inhibitory activity; also recorded: showed no effect,500 ± 94,–,7.2,11,220 ± 24,32 ± 5.6,400 ± 81,8.9,inhibited formation of the complex; also recorded: caused disruption of the complex,IC50 (Hsp90-(p)p50^Cdc37): 270 ± 35 µM; IC50 ((p)Hsp90-p50^Cdc37; span: phosphorylation of either Hsp90 or p50^Cdc37): 220 to 270 µM; interaction of N-terminal Hsp90β with p50^Cdc37 in the presence of ADP [5]: abolished
Nc1ncnc2c1ncn2[C@@H]1O[C@H](COP(=O)(O)OP(=O)(O)OP(=O)(O)O)[C@@H](O)[C@H]1O [ATP],11,–,> 1000,–,240,43,450 ± 150,230 ± 40,> 1000,4.6,stable complex,IC50 (Hsp90-(p)p50^Cdc37): > 1000 µM; disruption of the phosphorylated complex ((p)Hsp90-(p)p50^Cdc37): remained largely ineffective
